Test results as given in US6469040B2, “Method of using cyclooxygenase-2 inhibitors in the treatment and prevention of neoplasia” (G.D. Searle & Co., priority 1997, dated 2002).

Key:
LNCaP = LNCaP human prostate cancer cell tumors in nude mice; assay type: in vivo; conditions: 6 mg/kg/day in drinking water
Text: (§1) Two human prostate cancer cell lines (PC-3 and LNCaP) were obtained (ATCC) to determine the efficacy of cyclooxygenase-2 inhibitors to inhibit tumor growth in a therapeutic model. In addition, the LNCaP cell line secretes prostate serum antigen (PSA) when grown in nude mice.
PSA level was reduced to approximately 50% as judged by western blotting.

PC-3 cells = assay: PC-3 human prostate cancer cell tumors in nude mice; assay type: in vivo; conditions: 20 mg/kg/day in water from day 28, after 45 days
Method: as §1
PC-3 cells (10^6 cells/0.2 ml of 30% matrigel) in RPMI 1640 medium was injected on the back of nude mice. […] After 45 days, PGE2 and TXB2 were measured.

[1] = tested on: Lewis Lung carcinoma cells; conditions: CTX 50 mg/kg injected on days 5, 7 and 9
Method: Lewis Lung carcinoma cells (2.5×10^6 cells) prepared from a brei carried in C57BL/6 mice were injected subcutaneously into the hind legs of mice. […] Cyclophosphamide (CTX) was injected to mice on days 5,7 and 9 after the implantation of the tumor at a dose of 50 mg/kg. Tumor volume was determined during the study. The % inhibition was calculated as above.

SMILES | inhibition of growth of the tumor (LNCaP; day 58) [%] | PSA level reduced to (LNCaP; judged by western blotting) | PGE2 level reduction (PC-3 cells) | TXB2 level reduction (PC-3 cells) | Tumor Volume (Day 22) % Inhibition [1] [%]
NS(=O)(=O)c1ccc(-n2nc(C(F)F)cc2-c2ccc(Cl)cc2)cc1 [COX-2 inhibitor, 4-[5-(4-chlorophenyl)-3-(difluoromethyl)-1H-pyrazol-1-yl]benzenesulfonamide] | 55 | approximately 50% | 80-90% | 80-90% | 
O=P1(N(CCCl)CCCl)NCCCO1 (centres unmarked) [CTX, Cyclophosphamide] |  |  |  |  | 57
